The text below walks through data of article PMC9965125, “New NSAID Conjugates as Potent and Selective COX-2 Inhibitors: Synthesis, Molecular Modeling and Biological Investigation” (Molecules, 2023).

The subject of data set [1] is acetic acid-induced abdominal writhing. The data set is described as follows: acetic acid-induced abdominal writhing assay (peripheral analgesic). The class given is in vivo, mice. The note with it: for % Inhibition/Protection / Writing Reflex ± SE: 10 mg/kg indomethacin mol equivalent i.p.; for Potency: % inhibition/protection compared to indomethacin; for Writing Reflex ± SE: number of writhing counted for 30 min. A general note: An intraperitoneal irritant provokes the stretching counted in writhing tests.

In a further data set the test system is mice. The data set is described as follows: toxicological bioassay. The class given is in vivo. The note with it: five times the anti-inflammatory dose (50 mg/kg indomethacin mol equivalent); recorded 24 h post-administration. The protocol: Five times the anti-inflammatory dose was orally administrated. […]
5a, 5b, 5d, 5e) was determined utilizing the standard method in mice. Albino mice weighing 20–25 g were divided into 6 groups of 6 mice each. Administrations of the tested compounds dissolved in distilled water by the aid of few drops of Tween 80 were given intraperitoneally in 50 […]
inflammatory dosage). The control group was given water only with few drops of Tween 80. The toxic symptoms and mortality rates were recorded 24 h post -administration in each group.

The target of the next data set is T1, COX-2 (Homo sapiens, UniProt P35354).
T1 construct: purchased BioVision Incorporated K547-100 and K548-100
T1 sequence (P35354 18-604): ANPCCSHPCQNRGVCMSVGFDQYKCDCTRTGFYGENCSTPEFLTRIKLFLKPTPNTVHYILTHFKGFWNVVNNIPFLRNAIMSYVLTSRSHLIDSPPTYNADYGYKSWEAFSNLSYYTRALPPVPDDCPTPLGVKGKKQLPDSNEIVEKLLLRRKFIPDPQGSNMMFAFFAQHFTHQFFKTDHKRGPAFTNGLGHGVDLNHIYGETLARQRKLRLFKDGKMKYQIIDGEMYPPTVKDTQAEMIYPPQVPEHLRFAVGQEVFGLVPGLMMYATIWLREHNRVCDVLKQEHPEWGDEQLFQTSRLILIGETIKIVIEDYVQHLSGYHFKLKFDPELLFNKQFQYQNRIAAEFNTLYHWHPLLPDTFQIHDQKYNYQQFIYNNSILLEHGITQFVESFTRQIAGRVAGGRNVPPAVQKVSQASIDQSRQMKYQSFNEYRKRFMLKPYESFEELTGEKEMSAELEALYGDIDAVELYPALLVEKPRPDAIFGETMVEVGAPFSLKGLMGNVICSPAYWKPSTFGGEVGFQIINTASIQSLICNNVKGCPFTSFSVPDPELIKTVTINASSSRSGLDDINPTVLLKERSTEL
Description: COX-2 inhibitor screening assay (fluorometric kit). The class given is biochemical. The following applies: for SI: SI = IC50 (COX-1)/IC50 (COX-2); for IC50: read-out: IC50, μM ± SD COX-2. The method, then:
the manufactor’s instructions.
The COX-1/2 inhibitor screening protocols can be summarized in following:
The test compound is dissolved in DMSO. Dilute to 10X the desired test concentration with COX-1 Assay Buffer before use. Add 10 μl diluted test inhibitor or Assay Buffer into assigned wells as sample screen [S] or Enzyme Control [EC] (no inhibitor) respectively. Add 2 μl of SC560 (in case […]
the wells as Inhibitor Control [IC].
Dilute COX Cofactor 200 times by adding 2 μl of COX Cofactor to 398 μl of COX Assay Buffer just before use. Mix well. Prepare Arachidonic Acid solution by adding 5 μl of supplied Arachidonic Acid to 5 μl of NaOH just before use. Vortex briefly to mix. Dilute Arachidonic Acid/NaOH solution 10 times by adding 90 μl ddH2O, vortex briefly to mix. Make as much as […]
For each well, prepare 80 μl of master mix as follows:
Diluted COX Cofactor 2 μl
Add 80 μl of Reaction Mix into each well. Use a multi -channel pipette to add 10 μl of diluted Arachidonic Acid/NaOH solution into each well to initiate all the reactions at the same time.
(T1 and T2) in the linear range of the plot and obtain the corresponding fluorescence values (RFU 1 […]
Calculate the slope for all samples, including Enzyme Control (EC), by dividing the net ΔRFU (RFU2 – RFU1) values by the time ΔT (T2 – T1). Calculate % Relative Inhibition as follows:
% Relative Inhibition = Slope of EC − Slope of S X 100

A further data set relates to gastric mucosa. The following applies: both, albino, mouse, in vivo, 3 days; for % Incidence of Ulcer Divided by 10 / Average Severity of Ulcer / Average of Ulcer Number / Number of Animals with Ulcer: po, 10 mg/kg. The method, then:
The ulcerogenic liability was determined in albino mice obeying the standard method.
Animals of either sex (pregnant females were excluded) weighing 20 –25 g were divided into 8 groups of 6 animals each. The animals fasted 18 h before drug administration.
80 administered orally for three successive days to fasted animals at a dose of 10 mg kg-1 (animal […]
The control group animals were given water only with few drops of Tween 80. The animals were sacrificed by cervical dislocation and the stomach was removed, opened along the greater curvature and rinsed with saline. The gastric mucosa was examined with a magnifying lens (10x) for the presence of lesions and ero sions. The ulcer index was calculated (Table 4) and the degree of ulcerogenic effect was expressed in terms of.
1. The percentage incidence of ulcers divided by 10.
2. Average number of ulcers per stomach.
3. Average severity of ulcers.
The ulcer index is the value that resulted from the sum of the above three values. […]

The term IC50 denotes the midpoint of a concentration-inhibition curve. For the compound `C#CCOC(=O)C(C)c1ccc(CC(C)C)cc1` (stereo not drawn) [Compound 3, Prop-2-yn-1-yl 2-(4-isobutylphenyl) Propanoate], in data set [1], the “% Inhibition/Protection” value is recorded as 71.8%, the Potency is 100.0% and the “Writing Reflex ± SE” value is recorded as 11.3 ± 0.9. Also, the “toxic symptoms or mortality” value with mice is “No toxic symptoms or mortality”. In addition, at COX-2, the SI amounted to 2.262 and the IC50 came to 8.6 ± 0.24 µM. Further, in the data set on gastric mucosa, the “Ulcer Index” value is given as 4.33, the “% Incidence of Ulcer Divided by 10” value was determined as 3.33, the “Average Severity of Ulcer” value came to 0.67 and the “Average of Ulcer Number” value is listed as 0.33. Also, the “Number of Animals with Ulcer” value in the data set with gastric mucosa is 2/6.
As to `Cc1ccc(-n2cc(COC(=O)C(C)c3ccc(CC(C)C)cc3)nn2)cc1` (stereo not drawn) [Compound 5d, (1-(p-Tolyl)-1H-1,2,3-triazol-4-yl)methyl 2-(4-isobutylphenyl)propanoate], in data set [1], the “% Inhibition/Protection” value was 82.5%, the Potency was 114.9% and the “Writing Reflex ± SE” value stood at 7.0 ± 1.3. Further, the “toxic symptoms or mortality” value with mice is “No toxic symptoms or mortality”. At COX-2, the SI was 2.158 and the IC50 amounted to 4.47 ± 0.13 µM. Besides, in the data set on gastric mucosa, the “Ulcer Index” value is given as 0, the “% Incidence of Ulcer Divided by 10” value is given as 0, the “Average Severity of Ulcer” value is given as 0 and the “Average of Ulcer Number” value was 0. In the data set with gastric mucosa, the “Number of Animals with Ulcer” value came out at 0.
Take `COc1ccccc1-n1cc(COC(=O)C(C)c2ccc(CC(C)C)cc2)nn1` (stereo not drawn) [Compound 5e, (1-(2-Methoxyphenyl)-1H-1,2,3-triazol-4-yl)methyl 2-(4-isobutylphenyl)propanoate]: in data set [1], the “% Inhibition/Protection” value is recorded as 63.3%, the Potency is recorded as 88.2% and the “Writing Reflex ± SE” value worked out at 14.7 ± 1.6. In addition, in the data set with mice, the “toxic symptoms or mortality” value was “No toxic symptoms or mortality”. Moreover, on COX-2, the SI worked out at 0.387 and the 50% inhibitory concentration (IC50) is 14 ± 0.4 µM. Also, in the data set on gastric mucosa, the “Ulcer Index” value turned out to be 0, the “% Incidence of Ulcer Divided by 10” value was 0, the “Average Severity of Ulcer” value was 0 and the “Average of Ulcer Number” value worked out at 0. Further, the “Number of Animals with Ulcer” value in the data set with gastric mucosa turned out to be 0.
